From publication PMC8391922, “The Combined Effect of Branching and Elongation on the Bioactivity Profile of Phytocannabinoids. Part I: Thermo-TRPs” (Biomedicines, 2021)
Read-outs that look alike come from different tables or passages of the source.

What was measured:
rat TRPV2 = target: T1, rat TRPV2 (Rattus norvegicus, UniProt Q9WUD2); assay: TRPV2-mediated elevation of intracellular Ca2+ (Fluo-4) in transfected HEK-293 cells; type: cell-based; details: for IC50: compound added 5 min before agonist CBD 2 μM; for TRPV2 Efficacy (% IM 4 μM): percentage of the response to ionomycin 4 μM, HEK-293
T1 construct: expressed in transfected cells; host or cells: HEK-293
T1 sequence (Q9WUD2 1-761): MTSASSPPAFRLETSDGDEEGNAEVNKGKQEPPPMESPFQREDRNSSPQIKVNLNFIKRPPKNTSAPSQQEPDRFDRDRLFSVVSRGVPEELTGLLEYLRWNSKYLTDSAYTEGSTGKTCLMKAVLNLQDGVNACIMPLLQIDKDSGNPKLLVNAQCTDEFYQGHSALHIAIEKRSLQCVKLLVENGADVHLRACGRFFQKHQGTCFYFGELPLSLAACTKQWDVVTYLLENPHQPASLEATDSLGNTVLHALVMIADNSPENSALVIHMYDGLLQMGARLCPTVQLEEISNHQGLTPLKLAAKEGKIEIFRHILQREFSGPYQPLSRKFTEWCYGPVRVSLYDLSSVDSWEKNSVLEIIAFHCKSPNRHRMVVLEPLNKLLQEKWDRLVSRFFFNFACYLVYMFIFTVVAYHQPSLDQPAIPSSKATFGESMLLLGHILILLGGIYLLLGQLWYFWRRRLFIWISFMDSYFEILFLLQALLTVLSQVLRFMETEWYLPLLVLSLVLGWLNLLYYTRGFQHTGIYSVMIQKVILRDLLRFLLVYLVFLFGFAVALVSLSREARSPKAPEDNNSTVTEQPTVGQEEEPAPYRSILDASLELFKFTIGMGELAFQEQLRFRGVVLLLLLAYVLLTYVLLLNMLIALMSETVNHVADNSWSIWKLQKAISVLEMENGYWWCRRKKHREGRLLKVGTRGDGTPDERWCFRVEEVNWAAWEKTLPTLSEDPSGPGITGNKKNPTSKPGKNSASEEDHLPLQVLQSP
Method: (§1) Assays of rat TRPA1, TRPV2, TRPV3, TRPV4, and TRPM8 or human TRPV1 mediated elevation of intracellular Ca ^2+ in transfected HEK-293 cells were performed with a continuous monitoring of [Ca ^2+]i during the experiments. […] Cell fluorescence before and after the addition of various concentrations of test compounds was measured, normalizing the effects against the response to ionomycin (IM, 4 μM). The values of the effect on [Ca^2+]i in HEK-293 cells not transfected were used as baseline and subtracted from the values obtained from transfected cells. For TRPA1, agonist efficacy was expressed as a percentage of the effect on [Ca ^2+]i observed with 100 μM allylisothiocyanate. […] In the TRPV3 assay, TRPV3-expressing HEK293 cells were first sensitized with the structurally unrelated agonist 2-aminoethoxydiphenyl borate (100 μM). Antagonist/desensitizing behavior is evaluated against the agonist of the TRP analyzed by adding the compounds directly in the quartz cuvette 5 min before stimulation of cells with the agonist. […] Dose-response curve fitting (sigmoidal dose-response variable slope) and parameter estimation were performed with Graph-Pad Prism8 (GraphPad Software Inc., San Diego, CA, USA). All determinations were performed at least in triplicate.

human TRPV1 = target: T2, human TRPV1 (Homo sapiens, UniProt Q8NER1); assay: TRPV1-mediated elevation of intracellular Ca2+ (Fluo-4) in transfected HEK-293 cells; type: cell-based; details: for TRPV1 Efficacy (% IM 4 μM): percentage of the response to ionomycin 4 μM, HEK-293
T2 construct: expressed in transfected cells; host or cells: HEK-293
T2 sequence (Q8NER1 whole entry): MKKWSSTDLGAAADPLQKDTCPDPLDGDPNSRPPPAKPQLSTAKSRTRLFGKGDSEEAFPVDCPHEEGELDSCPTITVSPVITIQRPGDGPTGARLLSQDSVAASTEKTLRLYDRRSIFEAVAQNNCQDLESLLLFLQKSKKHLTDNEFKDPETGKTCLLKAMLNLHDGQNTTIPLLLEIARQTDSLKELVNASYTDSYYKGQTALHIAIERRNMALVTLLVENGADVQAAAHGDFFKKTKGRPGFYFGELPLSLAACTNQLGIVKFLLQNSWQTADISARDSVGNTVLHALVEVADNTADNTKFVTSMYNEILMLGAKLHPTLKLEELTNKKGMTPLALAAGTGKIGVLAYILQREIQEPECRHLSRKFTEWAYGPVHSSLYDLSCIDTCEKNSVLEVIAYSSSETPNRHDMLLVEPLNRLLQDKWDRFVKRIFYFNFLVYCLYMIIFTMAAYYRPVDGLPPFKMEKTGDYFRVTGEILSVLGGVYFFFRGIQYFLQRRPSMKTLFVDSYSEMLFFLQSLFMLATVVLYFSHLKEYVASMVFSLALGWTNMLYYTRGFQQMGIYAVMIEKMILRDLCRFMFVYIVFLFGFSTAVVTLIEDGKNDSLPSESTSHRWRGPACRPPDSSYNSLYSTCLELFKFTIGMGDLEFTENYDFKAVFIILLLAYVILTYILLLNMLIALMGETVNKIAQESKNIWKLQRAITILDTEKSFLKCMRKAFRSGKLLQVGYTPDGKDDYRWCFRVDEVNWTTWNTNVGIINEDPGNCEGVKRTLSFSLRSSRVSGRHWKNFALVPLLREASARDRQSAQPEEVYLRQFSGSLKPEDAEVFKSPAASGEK
Method: as §1

[1] = antagonist/desensitizing, read-out: IC50 TRPV2
[2] = antagonist/desensitizing, compound added 5 min before agonist capsaicin 0.1 μM, read-out: IC50 TRPV1
[3] = IC50 TRPV2, antagonist/desensitizing
[4] = antagonist/desensitizing, compound added 5 min before agonist capsaicin 0.1 μM

For `CCCCC(C)(C)c1cc(O)c2c(c1)OC(C)(CCC=C(C)C)C=C2` (stereo not drawn) [8d, Depentyl-5-α,α-dimethylpentylcannabichromene], the IC50 (rat TRPV2; [1]) was 13.3 ± 1.1 µM, the “TRPV2 Efficacy (% IM 4 μM)” value (rat TRPV2) was <10% and the IC50 (human TRPV1; [2]) was > 100 µM. For the same compound, the “TRPV1 Efficacy (% IM 4 μM)” value (human TRPV1) was <10%.
For `CCCCCCC(C)(C)c1cc(O)c(C/C=C(\C)CCC=C(C)C)c(O)c1` [7b, Depentyl-α,α-dimethylheptyl-cannabigerol], the EC50 (rat TRPV2) was 9.8 ± 0.6 µM, the IC50 (rat TRPV2; [3]) was 39.4 ± 4.5 µM and the “TRPV2 Efficacy (% IM 4 μM)” value (rat TRPV2) was 65.3 ± 0.7%. For the same compound, the IC50 (human TRPV1) was > 100 µM, the “IC50 TRPV1” value (human TRPV1; [4]) was “inactive” and the “TRPV1 Efficacy (% IM 4 μM)” value (human TRPV1) was < 10%.
In the case of `CCCCCCCc1cc(O)c2c(c1)OC(C)(CCC=C(C)C)C=C2` (stereo not shown) [8c, Depentyl-5-n-heptylcannabichromene], the IC50 (rat TRPV2; [1]) is reported as 9 ± 0.8 µM, the “TRPV2 Efficacy (% IM 4 μM)” value (rat TRPV2) is reported as <10% and the IC50 (human TRPV1; [2]) is reported as > 100 µM. For the same compound, the “TRPV1 Efficacy (% IM 4 μM)” value (human TRPV1) was <10%.
In the case of `CCCCCCC(C)(C)c1cc(O)c2c(c1)OC(C)(CCC=C(C)C)C=C2` (stereo not drawn) [8b, Depentyl-α,α-dimethylheptyl-cannabichromene], the EC50 (rat TRPV2) is reported as > 50 µM, the IC50 (rat TRPV2; [3]) is reported as 22.6 ± 0.2 µM and the “TRPV2 Efficacy (% IM 4 μM)” value (rat TRPV2) is reported as 76.1 ± 0.6%. The EC50 (human TRPV1) was 12.8 ± 0.9 µM, the IC50 (human TRPV1) was > 100 µM and the “TRPV1 Efficacy (% IM 4 μM)” value (human TRPV1) was 18.9 ± 0.2%.
In the case of `C=C(C)[C@@H]1CCC(C)=C[C@H]1c1c(O)cc(C(C)(C)CCCCCC)cc1O` [1b, Depentyl-α,α-dimethylheptyl-cannabidiol], the IC50 (rat TRPV2; [1]) is reported as 16.8 ± 0.2 µM, the “TRPV2 Efficacy (% IM 4 μM)” value (rat TRPV2) is reported as < 10% and the “IC50 TRPV1” value (human TRPV1; [4]) is reported as “inactive”. The IC50 (human TRPV1; [2]) was > 100 µM and the “TRPV1 Efficacy (% IM 4 μM)” value (human TRPV1) was < 10%.
